Test results: PubChem BioAssay (NCI)
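Briefly, cells in 96-well plates were exposed to five compound concentrations for 48 h, and endpoints were estimated by linear interpolation. GI50 marks 50% less growth. TGI denotes the concentration required for complete inhibition of growth.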

Tests used:
Test in all cases: NCI tumour cell line growth inhibition, 48 h
786-0 renal = tested on: 786-0 renal
A498 renal = tested on: A498 renal
A549 NSCLC = tested on: A549 NSCLC
ACHN renal = tested on: ACHN renal
BT-549 breast = tested on: BT-549 breast
CAKI-1 renal = tested on: CAKI-1 renal
CCRF-CEM leukemia = tested on: CCRF-CEM leukemia
COLO 205 colon = tested on: COLO 205 colon
DU-145 prostate = tested on: DU-145 prostate
HCC-2998 colon = tested on: HCC-2998 colon
HCT-15 colon = tested on: HCT-15 colon
HL-60(TB) leukemia = tested on: HL-60(TB) leukemia
HOP-62 NSCLC = tested on: HOP-62 NSCLC
HS 578T breast = tested on: HS 578T breast
HT29 colon = tested on: HT29 colon
IGROV1 ovarian = tested on: IGROV1 ovarian
KM12 colon = tested on: KM12 colon
M14 melanoma = tested on: M14 melanoma
MALME-3M melanoma = tested on: MALME-3M melanoma
MCF7 breast = tested on: MCF7 breast
MDA-MB-231 breast = tested on: MDA-MB-231 breast
MDA-MB-435 = tested on: MDA-MB-435
MOLT-4 leukemia = tested on: MOLT-4 leukemia
NCI-H226 lung = tested on: NCI-H226 lung
NCI-H23 lung = tested on: NCI-H23 lung
NCI-H460 lung = tested on: NCI-H460 lung
NCI-H522 lung = tested on: NCI-H522 lung
NCI/ADR-RES ovarian = tested on: NCI/ADR-RES ovarian
OVCAR-3 ovarian = tested on: OVCAR-3 ovarian
OVCAR-4 ovarian = tested on: OVCAR-4 ovarian
OVCAR-5 ovarian = tested on: OVCAR-5 ovarian
OVCAR-8 ovarian = tested on: OVCAR-8 ovarian
PC-3 prostate = tested on: PC-3 prostate
RPMI-8226 leukemia = tested on: RPMI-8226 leukemia
RXF 393 renal = tested on: RXF 393 renal
SF-268 CNS = tested on: SF-268 CNS
SF-295 CNS = tested on: SF-295 CNS
SF-539 CNS = tested on: SF-539 CNS
SK-MEL-28 melanoma = tested on: SK-MEL-28 melanoma
SK-MEL-5 melanoma = tested on: SK-MEL-5 melanoma
SK-OV-3 ovarian = tested on: SK-OV-3 ovarian
SN12C renal = tested on: SN12C renal
SNB-19 CNS = tested on: SNB-19 CNS
SNB-75 CNS = tested on: SNB-75 CNS
SR leukemia = tested on: SR leukemia
SW-620 colon = tested on: SW-620 colon
T-47D breast = tested on: T-47D breast
TK-10 renal = tested on: TK-10 renal
U251 CNS = tested on: U251 CNS
UACC-257 melanoma = tested on: UACC-257 melanoma
UACC-62 melanoma = tested on: UACC-62 melanoma
UO-31 renal = tested on: UO-31 renal

Work on `O=C(/C=C/c1ccc(Cl)cc1)/C=C/c1cc2ccccc2[nH]c1=O` yielded a GI50 (786-0 renal) of 2.02 µM, a TGI (786-0 renal) of 4.16 µM and a GI50 (A498 renal) of 5.87 µM. For the same molecule, the TGI (A498 renal) was 18.8 µM, the GI50 (A549 NSCLC) was 3.16 µM and the TGI (A549 NSCLC) was 48.9 µM. The GI50 (ACHN renal) was 4.96 µM, the TGI (ACHN renal) was 20.3 µM and the GI50 (BT-549 breast) was 3.29 µM. It also gave a TGI (BT-549 breast) of 11.7 µM, a GI50 (CAKI-1 renal) of 4.38 µM and a TGI (CAKI-1 renal) of 21.8 µM. It also gave a GI50 (CCRF-CEM leukemia) of 3.09 µM, a TGI (CCRF-CEM leukemia) of 9.74 µM and a GI50 (COLO 205 colon) of 3.65 µM. For the same molecule, the TGI (COLO 205 colon) was 11.7 µM, the GI50 (DU-145 prostate) was 3.52 µM and the TGI (DU-145 prostate) was 11.7 µM. For the same molecule, the GI50 (HCC-2998 colon) was 2.02 µM, the TGI (HCC-2998 colon) was 3.62 µM and the GI50 (HCT-15 colon) was 2.85 µM. It also gave a TGI (HCT-15 colon) of 14.6 µM, a GI50 (HL-60(TB) leukemia) of 2.83 µM and a TGI (HL-60(TB) leukemia) of 8.39 µM. It also gave a GI50 (HOP-62 NSCLC) of 8.21 µM, a TGI (HOP-62 NSCLC) of 26 µM and a GI50 (HS 578T breast) of 4.14 µM. For the same molecule, the TGI (HS 578T breast) was 66.6 µM, the GI50 (HT29 colon) was 2.5 µM and the TGI (HT29 colon) was 6.33 µM. The GI50 (IGROV1 ovarian) was 2.34 µM, the TGI (IGROV1 ovarian) was 5.5 µM and the GI50 (KM12 colon) was 3.11 µM. The TGI (KM12 colon) was 10.3 µM, the GI50 (M14 melanoma) was 3.11 µM and the TGI (M14 melanoma) was 13.4 µM. The GI50 (MALME-3M melanoma) was 7.63 µM, the TGI (MALME-3M melanoma) was 38.4 µM and the GI50 (MCF7 breast) was 0.923 µM. For the same molecule, the TGI (MCF7 breast) was 8.45 µM, the GI50 (MDA-MB-231 breast) was 2.64 µM and the TGI (MDA-MB-231 breast) was 7.82 µM. The GI50 (MDA-MB-435) was 2.34 µM, the TGI (MDA-MB-435) was 5.63 µM and the GI50 (MOLT-4 leukemia) was 3.82 µM. The TGI (MOLT-4 leukemia) was 13.8 µM, the GI50 (NCI-H226 lung) was 2.59 µM and the TGI (NCI-H226 lung) was 11.4 µM. For the same molecule, the GI50 (NCI-H23 lung) was 4.76 µM, the TGI (NCI-H23 lung) was 23.5 µM and the GI50 (NCI-H460 lung) was 8.52 µM. It also gave a TGI (NCI-H460 lung) of 28.9 µM, a GI50 (NCI-H522 lung) of 1.91 µM and a TGI (NCI-H522 lung) of 5.4 µM. For the same molecule, the GI50 (NCI/ADR-RES ovarian) was 16.8 µM, the TGI (NCI/ADR-RES ovarian) was greater than 100 µM and the GI50 (OVCAR-3 ovarian) was 2.07 µM. The TGI (OVCAR-3 ovarian) was 4.5 µM, the GI50 (OVCAR-4 ovarian) was 5.06 µM and the TGI (OVCAR-4 ovarian) was 74.3 µM. The GI50 (OVCAR-5 ovarian) was 4.65 µM, the TGI (OVCAR-5 ovarian) was 19.6 µM and the GI50 (OVCAR-8 ovarian) was 3.03 µM. It also gave a TGI (OVCAR-8 ovarian) of 12.9 µM, a GI50 (PC-3 prostate) of 2.91 µM and a TGI (PC-3 prostate) of 13.7 µM. It also gave a GI50 (RPMI-8226 leukemia) of 1.29 µM, a TGI (RPMI-8226 leukemia) of 4.65 µM and a GI50 (RXF 393 renal) of 2.81 µM. It also gave a TGI (RXF 393 renal) of 8.88 µM, a GI50 (SF-268 CNS) of 3.61 µM and a TGI (SF-268 CNS) of 16 µM. The GI50 (SF-295 CNS) was 3.48 µM, the TGI (SF-295 CNS) was 13.2 µM and the GI50 (SF-539 CNS) was 2.88 µM. The TGI (SF-539 CNS) was 9.37 µM, the GI50 (SK-MEL-28 melanoma) was 10 µM and the TGI (SK-MEL-28 melanoma) was 26.2 µM. The GI50 (SK-MEL-5 melanoma) was 10.1 µM, the TGI (SK-MEL-5 melanoma) was 25.2 µM and the GI50 (SK-OV-3 ovarian) was 12.2 µM. For the same molecule, the TGI (SK-OV-3 ovarian) was 32.7 µM, the GI50 (SN12C renal) was 3.67 µM and the TGI (SN12C renal) was 17.4 µM. The GI50 (SNB-19 CNS) was 11.3 µM, the TGI (SNB-19 CNS) was 24.7 µM and the GI50 (SNB-75 CNS) was 5.79 µM. For the same molecule, the TGI (SNB-75 CNS) was 24.7 µM, the GI50 (SR leukemia) was 2.42 µM and the TGI (SR leukemia) was 8.19 µM. The GI50 (SW-620 colon) was 2.31 µM, the TGI (SW-620 colon) was 5.82 µM and the GI50 (T-47D breast) was 3.46 µM. It also gave a TGI (T-47D breast) of 22.7 µM, a GI50 (TK-10 renal) of 12.3 µM and a TGI (TK-10 renal) of 31.8 µM. For the same molecule, the GI50 (U251 CNS) was 1.81 µM, the TGI (U251 CNS) was 3.68 µM and the GI50 (UACC-257 melanoma) was 5.2 µM. The TGI (UACC-257 melanoma) was 19.6 µM, the GI50 (UACC-62 melanoma) was 2.8 µM and the TGI (UACC-62 melanoma) was 10.5 µM. It also gave a GI50 (UO-31 renal) of 4.28 µM and a TGI (UO-31 renal) of 20 µM.
